The source made the active and inactive calls.
What was measured:
[1] = biological target: Ribosomal protein S6 kinase alpha-4 (Homo sapiens, UniProt O75676)
ADP/ATP translocase 2 = biological target: T1, ADP/ATP translocase 2 (Homo sapiens, UniProt P05141)
T1 sequence (P05141 whole entry): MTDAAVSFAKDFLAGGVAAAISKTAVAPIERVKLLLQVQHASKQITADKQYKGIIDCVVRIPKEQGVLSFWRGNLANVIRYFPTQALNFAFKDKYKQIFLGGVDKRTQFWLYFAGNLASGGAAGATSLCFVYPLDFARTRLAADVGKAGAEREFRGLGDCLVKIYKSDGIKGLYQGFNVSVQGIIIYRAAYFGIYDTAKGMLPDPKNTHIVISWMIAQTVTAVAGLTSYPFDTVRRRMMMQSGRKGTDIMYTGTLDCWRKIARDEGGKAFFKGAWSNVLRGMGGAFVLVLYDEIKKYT

[2] = biological target: T2, Serine/threonine-protein kinase LATS1 (Homo sapiens, UniProt O95835)
T2 sequence (O95835 whole entry): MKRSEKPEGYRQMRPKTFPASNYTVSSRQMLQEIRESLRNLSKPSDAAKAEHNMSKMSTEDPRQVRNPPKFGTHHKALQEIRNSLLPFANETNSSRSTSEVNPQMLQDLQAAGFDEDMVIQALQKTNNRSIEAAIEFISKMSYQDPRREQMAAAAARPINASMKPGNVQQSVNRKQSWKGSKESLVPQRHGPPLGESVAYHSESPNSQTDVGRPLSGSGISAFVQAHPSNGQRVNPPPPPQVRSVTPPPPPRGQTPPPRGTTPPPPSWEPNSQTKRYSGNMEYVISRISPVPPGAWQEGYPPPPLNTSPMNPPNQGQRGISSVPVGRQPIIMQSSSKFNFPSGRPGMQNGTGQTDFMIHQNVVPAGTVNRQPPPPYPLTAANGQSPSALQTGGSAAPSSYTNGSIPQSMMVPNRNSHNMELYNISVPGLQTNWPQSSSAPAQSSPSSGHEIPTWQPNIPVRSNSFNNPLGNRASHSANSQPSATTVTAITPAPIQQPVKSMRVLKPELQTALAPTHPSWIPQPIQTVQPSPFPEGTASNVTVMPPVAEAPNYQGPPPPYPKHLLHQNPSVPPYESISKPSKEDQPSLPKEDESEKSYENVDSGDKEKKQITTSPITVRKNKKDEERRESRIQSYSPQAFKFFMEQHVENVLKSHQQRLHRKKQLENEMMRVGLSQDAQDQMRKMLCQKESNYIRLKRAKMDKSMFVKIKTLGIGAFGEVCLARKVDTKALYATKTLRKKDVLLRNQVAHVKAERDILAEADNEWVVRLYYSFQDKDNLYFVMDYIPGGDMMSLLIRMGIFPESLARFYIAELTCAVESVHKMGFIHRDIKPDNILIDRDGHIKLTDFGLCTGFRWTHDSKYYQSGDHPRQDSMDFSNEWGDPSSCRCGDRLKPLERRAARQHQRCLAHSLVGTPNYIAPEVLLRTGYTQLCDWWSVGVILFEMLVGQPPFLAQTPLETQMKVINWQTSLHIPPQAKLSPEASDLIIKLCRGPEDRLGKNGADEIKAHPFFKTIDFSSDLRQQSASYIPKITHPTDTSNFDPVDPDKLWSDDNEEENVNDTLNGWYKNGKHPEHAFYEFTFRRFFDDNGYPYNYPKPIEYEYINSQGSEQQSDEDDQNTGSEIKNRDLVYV

[3] = biological target: T3, Probable ATP-dependent RNA helicase DDX6 (Homo sapiens, UniProt P26196)
T3 sequence (P26196 whole entry): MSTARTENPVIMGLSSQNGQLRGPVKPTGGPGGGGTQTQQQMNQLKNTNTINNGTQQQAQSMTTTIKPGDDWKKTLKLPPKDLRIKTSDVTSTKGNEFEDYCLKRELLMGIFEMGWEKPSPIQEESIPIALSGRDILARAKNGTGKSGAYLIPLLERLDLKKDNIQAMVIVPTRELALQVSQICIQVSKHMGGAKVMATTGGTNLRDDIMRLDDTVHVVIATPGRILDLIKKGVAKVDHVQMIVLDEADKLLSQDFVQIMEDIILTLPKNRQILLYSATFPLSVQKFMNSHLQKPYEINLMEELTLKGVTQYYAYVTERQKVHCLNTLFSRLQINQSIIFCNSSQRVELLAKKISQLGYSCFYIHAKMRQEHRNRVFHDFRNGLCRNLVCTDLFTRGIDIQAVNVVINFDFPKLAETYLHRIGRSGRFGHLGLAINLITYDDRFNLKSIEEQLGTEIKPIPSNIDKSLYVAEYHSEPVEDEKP

Midasin = Midasin (Homo sapiens, UniProt Q9NU22)
[4] = biological target: Mitotic checkpoint serine/threonine-protein kinase BUB1 (Homo sapiens, UniProt O43683)
[5] = biological target: T4, Cysteine--tRNA ligase, cytoplasmic (Homo sapiens, UniProt P49589)
T4 sequence (P49589 whole entry): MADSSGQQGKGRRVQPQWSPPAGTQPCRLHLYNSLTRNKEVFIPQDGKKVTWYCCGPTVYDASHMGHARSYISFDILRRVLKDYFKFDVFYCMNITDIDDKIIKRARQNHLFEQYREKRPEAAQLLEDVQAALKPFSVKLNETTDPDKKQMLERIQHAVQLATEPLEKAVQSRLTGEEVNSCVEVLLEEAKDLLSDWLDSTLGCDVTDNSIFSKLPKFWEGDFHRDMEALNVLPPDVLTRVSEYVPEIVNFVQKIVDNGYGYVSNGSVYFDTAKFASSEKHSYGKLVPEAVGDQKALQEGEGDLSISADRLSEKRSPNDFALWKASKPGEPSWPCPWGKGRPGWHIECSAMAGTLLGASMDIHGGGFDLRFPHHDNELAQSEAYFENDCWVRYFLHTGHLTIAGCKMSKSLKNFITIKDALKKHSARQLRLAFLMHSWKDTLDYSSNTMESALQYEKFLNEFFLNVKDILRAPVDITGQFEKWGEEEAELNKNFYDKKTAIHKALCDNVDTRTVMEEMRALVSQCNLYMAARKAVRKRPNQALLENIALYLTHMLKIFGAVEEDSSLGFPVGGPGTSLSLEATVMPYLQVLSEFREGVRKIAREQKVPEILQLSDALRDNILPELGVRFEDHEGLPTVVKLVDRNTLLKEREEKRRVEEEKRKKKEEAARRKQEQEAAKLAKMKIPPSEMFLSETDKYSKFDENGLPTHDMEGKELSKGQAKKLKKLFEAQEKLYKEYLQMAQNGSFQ

[6] = biological target: Mitogen-activated protein kinase 3 (Homo sapiens, UniProt P27361)
[7] = biological target: 5'-AMP-activated protein kinase catalytic subunit alpha-1 (Homo sapiens, UniProt Q13131)
Further: in the data inactive means no Kd found up to 30 µM.

Ribosomal protein S6 kinase alpha-4, sequence (O75676 whole entry): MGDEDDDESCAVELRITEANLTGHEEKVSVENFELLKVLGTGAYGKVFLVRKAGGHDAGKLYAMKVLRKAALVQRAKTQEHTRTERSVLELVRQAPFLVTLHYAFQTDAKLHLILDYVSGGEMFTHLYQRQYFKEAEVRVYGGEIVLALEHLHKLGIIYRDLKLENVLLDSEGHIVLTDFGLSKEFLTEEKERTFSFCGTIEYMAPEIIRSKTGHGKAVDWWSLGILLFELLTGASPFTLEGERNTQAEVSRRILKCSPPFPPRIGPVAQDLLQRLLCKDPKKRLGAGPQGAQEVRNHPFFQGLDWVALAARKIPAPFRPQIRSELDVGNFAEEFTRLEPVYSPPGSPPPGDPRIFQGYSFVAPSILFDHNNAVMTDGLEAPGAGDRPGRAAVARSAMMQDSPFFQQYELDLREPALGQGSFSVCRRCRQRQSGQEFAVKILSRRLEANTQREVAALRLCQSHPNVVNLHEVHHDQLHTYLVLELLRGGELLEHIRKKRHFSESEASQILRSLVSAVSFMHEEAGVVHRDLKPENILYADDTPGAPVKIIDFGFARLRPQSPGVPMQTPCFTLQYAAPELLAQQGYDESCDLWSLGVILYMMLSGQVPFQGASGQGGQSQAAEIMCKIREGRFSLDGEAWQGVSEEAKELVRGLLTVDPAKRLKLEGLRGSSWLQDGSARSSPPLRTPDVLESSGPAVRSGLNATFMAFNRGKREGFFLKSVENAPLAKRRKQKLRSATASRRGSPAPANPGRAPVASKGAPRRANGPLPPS
Mitotic checkpoint serine/threonine-protein kinase BUB1, sequence (O43683 whole entry): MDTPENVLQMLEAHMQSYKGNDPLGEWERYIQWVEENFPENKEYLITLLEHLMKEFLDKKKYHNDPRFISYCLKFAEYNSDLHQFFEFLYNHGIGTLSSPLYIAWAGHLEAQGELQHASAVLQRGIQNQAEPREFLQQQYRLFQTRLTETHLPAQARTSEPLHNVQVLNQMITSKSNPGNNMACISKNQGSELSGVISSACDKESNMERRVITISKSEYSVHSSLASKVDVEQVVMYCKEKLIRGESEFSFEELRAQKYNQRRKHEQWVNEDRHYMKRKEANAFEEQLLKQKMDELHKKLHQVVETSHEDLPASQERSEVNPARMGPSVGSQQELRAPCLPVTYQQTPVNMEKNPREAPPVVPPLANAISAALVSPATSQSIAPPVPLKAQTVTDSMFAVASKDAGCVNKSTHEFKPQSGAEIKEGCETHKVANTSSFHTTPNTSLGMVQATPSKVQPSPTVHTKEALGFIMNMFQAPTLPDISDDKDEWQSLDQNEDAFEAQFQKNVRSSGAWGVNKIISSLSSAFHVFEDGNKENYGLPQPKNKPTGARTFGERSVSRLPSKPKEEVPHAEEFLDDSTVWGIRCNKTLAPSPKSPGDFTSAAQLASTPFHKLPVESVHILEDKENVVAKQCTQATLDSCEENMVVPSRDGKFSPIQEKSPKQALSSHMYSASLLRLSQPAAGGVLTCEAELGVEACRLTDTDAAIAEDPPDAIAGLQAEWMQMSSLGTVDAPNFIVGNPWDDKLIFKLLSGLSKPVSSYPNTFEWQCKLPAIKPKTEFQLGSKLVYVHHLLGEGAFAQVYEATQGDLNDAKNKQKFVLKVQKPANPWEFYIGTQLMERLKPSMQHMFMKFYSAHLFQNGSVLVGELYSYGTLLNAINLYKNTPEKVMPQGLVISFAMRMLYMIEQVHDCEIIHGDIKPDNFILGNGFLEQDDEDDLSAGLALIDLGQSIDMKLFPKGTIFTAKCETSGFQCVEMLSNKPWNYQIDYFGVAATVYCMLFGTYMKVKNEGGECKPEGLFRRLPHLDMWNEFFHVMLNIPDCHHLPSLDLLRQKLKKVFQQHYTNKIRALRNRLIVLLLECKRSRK
Mitogen-activated protein kinase 3, sequence (P27361 whole entry): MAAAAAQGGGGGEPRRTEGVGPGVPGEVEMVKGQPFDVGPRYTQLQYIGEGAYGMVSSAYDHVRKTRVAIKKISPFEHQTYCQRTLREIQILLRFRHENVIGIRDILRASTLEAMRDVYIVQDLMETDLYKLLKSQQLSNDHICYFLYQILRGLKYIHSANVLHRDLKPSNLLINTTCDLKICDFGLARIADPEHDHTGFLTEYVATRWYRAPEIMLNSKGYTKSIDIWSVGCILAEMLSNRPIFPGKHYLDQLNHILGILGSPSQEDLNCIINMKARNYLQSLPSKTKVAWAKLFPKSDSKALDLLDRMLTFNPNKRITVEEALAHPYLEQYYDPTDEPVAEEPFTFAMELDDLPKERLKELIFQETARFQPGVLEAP
5'-AMP-activated protein kinase catalytic subunit alpha-1, sequence (Q13131 whole entry): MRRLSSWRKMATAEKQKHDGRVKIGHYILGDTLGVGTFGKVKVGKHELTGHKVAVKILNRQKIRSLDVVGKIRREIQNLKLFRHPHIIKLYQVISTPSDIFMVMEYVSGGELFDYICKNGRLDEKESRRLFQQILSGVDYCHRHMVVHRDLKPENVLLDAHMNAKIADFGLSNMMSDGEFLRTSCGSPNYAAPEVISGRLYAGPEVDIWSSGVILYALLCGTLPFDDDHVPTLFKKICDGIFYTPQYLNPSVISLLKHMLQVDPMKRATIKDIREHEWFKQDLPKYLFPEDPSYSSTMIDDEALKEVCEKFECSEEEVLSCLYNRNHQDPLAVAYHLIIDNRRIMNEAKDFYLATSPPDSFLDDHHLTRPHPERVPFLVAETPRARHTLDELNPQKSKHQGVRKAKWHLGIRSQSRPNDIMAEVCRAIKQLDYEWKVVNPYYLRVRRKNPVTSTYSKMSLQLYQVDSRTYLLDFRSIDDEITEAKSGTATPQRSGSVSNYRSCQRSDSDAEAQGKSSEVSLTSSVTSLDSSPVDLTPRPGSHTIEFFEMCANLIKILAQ

Compound	Kd [1]	Kd (ADP/ATP translocase 2)	Kd [2]	Kd [3]	Kd (Midasin)	Kd [4]	Kd [5]	Kd [6]	Kd [7]
CC(=O)c1cnc2ccc(-c3cc(Cl)c(O)c(Cl)c3)nc2c1N[C@H]1CC[C@H](CN(C)C)CC1	0.111 µM (active)	> 30 µM (inactive)	0.014 µM (active)	> 30 µM (inactive)	> 30 µM (inactive)	> 30 µM (inactive)	> 30 µM (inactive)	> 30 µM (inactive)	
COCc1c(-c2ccc(NC(=O)Nc3cc(C(F)(F)F)ccc3F)c(F)c2)c2c(N)ncnn2c1CN1CCOCC1	> 30 µM (inactive)	> 30 µM (inactive)	> 30 µM (inactive)	> 30 µM (inactive)	> 30 µM (inactive)	> 30 µM (inactive)	> 30 µM (inactive)	> 30 µM (inactive)	> 30 µM (inactive)
CNC(=O)c1ccccc1Sc1ccc2c(/C=C/c3ccccn3)n[nH]c2c1 [AXITINIB]		> 30 µM (inactive)		> 30 µM (inactive)	> 30 µM (inactive)	> 30 µM (inactive)	> 30 µM (inactive)		
COCC(=O)NC/C=C/c1ccc2ncnc(Nc3ccc(Oc4ccc(C)nc4)c(C)c3)c2c1 [CP-724714]	> 30 µM (inactive)	> 30 µM (inactive)	> 30 µM (inactive)	> 30 µM (inactive)	> 30 µM (inactive)	> 30 µM (inactive)	> 30 µM (inactive)	> 30 µM (inactive)	> 30 µM (inactive)
CC(C)(C)c1nc(-c2cccc(NS(=O)(=O)c3c(F)cccc3F)c2F)c(-c2ccnc(N)n2)s1 [DABRAFENIB]		> 30 µM (inactive)	> 30 µM (inactive)	> 30 µM (inactive)	> 30 µM (inactive)	> 30 µM (inactive)	> 30 µM (inactive)	> 30 µM (inactive)	
Cn1cc(C2=C(c3cn(C4CCN(Cc5ccccn5)CC4)c4ccccc34)C(=O)NC2=O)c2ccccc21 [ENZASTAURIN]		> 30 µM (inactive)		> 30 µM (inactive)	> 30 µM (inactive)	> 30 µM (inactive)	> 30 µM (inactive)		
C[C@@H](Oc1cc(-n2cnc3ccc(CN4CCN(C)CC4)cc32)sc1C(N)=O)c1ccccc1C(F)(F)F [GSK-461364]		> 30 µM (inactive)		> 30 µM (inactive)	> 30 µM (inactive)	> 30 µM (inactive)	> 30 µM (inactive)		
CNC(=O)c1cccc2cc(Oc3ccnc4cc(OCC5(N)CC5)c(OC)cc34)ccc12 [LUCITANIB]	> 30 µM (inactive)	> 30 µM (inactive)	> 30 µM (inactive)	> 30 µM (inactive)	> 30 µM (inactive)	> 30 µM (inactive)	> 30 µM (inactive)	> 30 µM (inactive)	> 30 µM (inactive)
NC1(c2ccc(-c3nc4ccn5c(=O)[nH]nc5c4cc3-c3ccccc3)cc2)CCC1 [MK-2206]	> 30 µM (inactive)	> 30 µM (inactive)	> 30 µM (inactive)	> 30 µM (inactive)	> 30 µM (inactive)	> 30 µM (inactive)	> 30 µM (inactive)	> 30 µM (inactive)	> 30 µM (inactive)
COc1ncc(-c2ccc3nccc(-c4ccnnc4)c3c2)cc1NS(=O)(=O)c1ccc(F)cc1F [OMIPALISIB]	> 30 µM (inactive)	> 30 µM (inactive)	> 30 µM (inactive)	> 30 µM (inactive)	> 30 µM (inactive)			> 30 µM (inactive)	> 30 µM (inactive)
NC(=O)c1c(OCc2c(F)cc(Br)cc2F)nsc1NC(=O)NCCCCN1CCCC1 [OSI-632]		> 30 µM (inactive)	> 30 µM (inactive)	> 30 µM (inactive)	> 30 µM (inactive)			> 30 µM (inactive)	
Cc1cnc(NC(=O)Nc2cc(Br)c(C)cc2OC[C@@H]2CNCCO2)cn1 [RABUSERTIB]	> 30 µM (inactive)	> 30 µM (inactive)	> 30 µM (inactive)	> 30 µM (inactive)	> 30 µM (inactive)	> 30 µM (inactive)	> 30 µM (inactive)	> 30 µM (inactive)	> 30 µM (inactive)
CNC(=O)c1cc(Oc2ccc(NC(=O)Nc3cc(C(C)(C)C)nn3-c3ccc4ncccc4c3)c(F)c2)ccn1 [REBASTINIB]	12.8 µM	> 30 µM (inactive)	> 30 µM (inactive)	> 30 µM (inactive)	> 30 µM (inactive)	> 30 µM (inactive)		> 30 µM (inactive)	> 30 µM (inactive)
O=C(NOCCO)c1cc(CN2OCCCC2=O)c(F)c(F)c1Nc1ccc(I)cc1F [RO-4987655]		> 30 µM (inactive)		> 30 µM (inactive)	> 30 µM (inactive)		> 30 µM (inactive)		
N#CC[C@H](C1CCCC1)n1cc(-c2ncnc3[nH]ccc23)cn1 [RUXOLITINIB]		> 30 µM (inactive)		> 30 µM (inactive)	> 30 µM (inactive)	> 30 µM (inactive)	> 30 µM (inactive)		
CCS(=O)(=O)c1cccc(-c2cc(C(=O)NC3CCN(C)CC3)c(C)c3[nH]c4ncc(C)cc4c23)c1 [TAK-901]	3 µM (active)	> 30 µM (inactive)	> 30 µM (inactive)	> 30 µM (inactive)	> 30 µM (inactive)	> 30 µM (inactive)		> 30 µM (inactive)	
C[C@@H](NC(=O)c1ncnc(N)c1Cl)c1ncc(C(=O)Nc2cc(C(F)(F)F)c(Cl)cn2)s1 [TOVORAFENIB]	> 30 µM (inactive)	> 30 µM (inactive)	> 30 µM (inactive)		> 30 µM (inactive)	> 30 µM (inactive)	> 30 µM (inactive)	> 30 µM (inactive)	> 30 µM (inactive)

— ChEMBL document CHEMBL3991601, “The target landscape of clinical kinase drugs” (Science, 2017)
